These are literature values, as cited in patent US20090145189A1, “Composition and a manufacturing method thereof” (priority 2007, published 2009).

For series [1] the following is noted: concentrations above 40 wt %, such as 50 wt %.

Turning to `O=C([O-])CN(CCN(CC(=O)[O-])CC(=O)[O-])CCN(CC(=O)[O-])CC(=O)[O-].[Na+].[Na+].[Na+].[Na+].[Na+]` [DTPANa5, penta sodium salt of diethylenetriamine-N,N,N-penta-acetic acid], in series [1], the Viscosity result is “too viscous to allow convenient handling”. Consider `O=C(O)CN(CCN(CC(=O)O)CC(=O)O)CCN(CC(=O)O)CC(=O)O` [DTPA, diethylenetriamine-N,N,N-penta-acetic acid], for which the Water solubility entry is listed as “low water solubility”.
